Data set [1] is described as follows: Stability in artificial intestinal juice. The data set is classed as in vitro ADME. Here is the method: During ADME studies, the concentration of the compounds was analyzed using ultra-performance liquid chromatography (UPLC) coupled with tandem mass spectrometry (MS/MS) in the multiple reaction monitoring (MRM) mode. A quantitative analysis was performed using the internal standard (IS) calibration method, with tolbutamide as the IS.
The analyses were carried out on a system composed of an Agilent 1290 Infinity UPLC system (Agilent Technologies, USA) connected by ESI interface to a tandem quadrupole mass spectrometer QTRAP 6500 (AB Sciex Corp, Framingham, MA, USA). The separation was conducted on an YMC Triart C18 50 × 2 mm, 1.9 μm column, which was kept at 35 °C. The samples were cooled to 8 °C in an autosampler, and aliquots of 1 µL were delivered onto the column. Elution was performed using gradients of A (0.1% formic acid in water) and B (0.1% formic acid in acetonitrile), at the flow rate 0.35 mL/min. […] The declustering potential was 31 V for BX and 93 V for IS, resepectively; the collision energy was attuned to 17 eV; the collision cell exit potential was 10 V for BX and 8 V for IS MRM, respectively; the analyses were recorded for 305 → 234 (BX) and 271 → 172 (tolbutamide). […]

Data set [2] can be described thus: Stability in human plasma. The data set is classed as in vitro ADME. To be noted: 37 °C, 1 μM. The method, then:
For the experiment, human and rat plasma (SD) was thawed at room temperature and centrifuged for 5 min at 1500× g. Eucatropine (Sigma-Aldrich, USA), which is unstable in human and rat plasma, was used as a control compound.
For stability evaluation, 3 μL of 100X solutions of the tested or control compound (0.1 mM) was added to 297 μL of the corresponding plasma (prewarmed to 37 °C) to a final concentration of 1 μM. The plasma samples were incubated with the test and control compounds in the 0.65 mL microtubes at 37 °C and under 300 rpm rotation. After 15, 30, 60, and 240 min, 30 μL aliquots were taken into 1.1 mL microtubes with 180 μL of chilled acetonitrile with an internal standard of 200 ng/mL tolbutamide (Fluka). The tubes were stirred and kept at 4 °C for 15 min, then centrifuged at 1500× g for 10 min. A total of 200 μL of the supernatants was transferred into microtubes and stored at −70 °C until UPLC–MS/MS analysis.

The target of the next data set is T1, hERG K+-ion channel (Homo sapiens, UniProt Q12809).
T1 construct: purchased Invitrogen
T1 sequence (Q12809 whole entry): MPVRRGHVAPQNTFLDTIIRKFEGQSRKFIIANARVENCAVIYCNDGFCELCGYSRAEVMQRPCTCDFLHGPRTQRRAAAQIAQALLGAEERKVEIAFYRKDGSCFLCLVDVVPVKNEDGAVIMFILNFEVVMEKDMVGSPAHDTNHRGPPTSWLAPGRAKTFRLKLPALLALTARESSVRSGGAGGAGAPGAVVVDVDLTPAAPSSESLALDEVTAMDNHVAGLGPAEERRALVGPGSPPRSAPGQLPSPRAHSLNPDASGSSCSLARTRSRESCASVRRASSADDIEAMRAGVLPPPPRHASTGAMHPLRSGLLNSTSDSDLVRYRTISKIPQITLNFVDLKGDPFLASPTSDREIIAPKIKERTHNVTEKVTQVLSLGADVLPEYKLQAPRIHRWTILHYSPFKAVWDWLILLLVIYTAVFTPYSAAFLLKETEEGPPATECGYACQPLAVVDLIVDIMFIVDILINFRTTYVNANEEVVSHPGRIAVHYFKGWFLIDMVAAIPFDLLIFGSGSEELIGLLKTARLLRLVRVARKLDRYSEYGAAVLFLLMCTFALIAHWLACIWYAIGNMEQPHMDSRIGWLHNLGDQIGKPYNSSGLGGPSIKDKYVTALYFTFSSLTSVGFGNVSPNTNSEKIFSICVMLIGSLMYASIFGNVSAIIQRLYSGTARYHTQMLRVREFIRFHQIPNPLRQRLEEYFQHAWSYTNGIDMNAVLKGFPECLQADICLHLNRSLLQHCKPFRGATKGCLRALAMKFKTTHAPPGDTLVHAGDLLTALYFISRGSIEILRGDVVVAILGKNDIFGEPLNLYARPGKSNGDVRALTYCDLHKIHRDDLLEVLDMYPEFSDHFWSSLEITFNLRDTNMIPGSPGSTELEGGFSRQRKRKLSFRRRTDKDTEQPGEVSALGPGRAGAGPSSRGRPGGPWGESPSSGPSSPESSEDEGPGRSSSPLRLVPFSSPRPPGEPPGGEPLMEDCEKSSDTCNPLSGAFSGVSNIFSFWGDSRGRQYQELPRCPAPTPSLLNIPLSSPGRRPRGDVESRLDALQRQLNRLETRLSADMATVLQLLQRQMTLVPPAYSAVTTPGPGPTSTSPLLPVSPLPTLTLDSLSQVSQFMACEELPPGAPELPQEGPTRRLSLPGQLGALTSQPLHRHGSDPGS
Nature of the data set: Predictor hERG fluorescence polarization assay. The data set is classed as binding. To be noted: tracer displacement, up to 50 µM. Here is the method: Determination of the binding of the BX-SI043 compound to the hERG K^+-ion channel was carried out using the Predictor hERG Fluorescence Polarization Assay Kit (Invitrogen, USA) at concentrations of 0.016, 0.08, 0.4, 2, 10, and 50 µM, according to the manufacturer’s instructions. This method is based on the measurement of the changing fluorescence polarization caused by the displacement of the high-affinity fluorescent tracer by the tested compound. A selective inhibitor of the hERG channels E-4031 was used as a control compound. Briefly, a 2X solution of membranes, containing hERG channels, was prepared and placed in 384-well plate. The tested substance, the control substance, the buffer, and the tracer were placed in the corresponding wells and incubated in the dark at room temperature for 2 h. Fluorescence polarization measurement was conducted on an Infinite M1000 PRO plate reader with the following parameters: 10 flashes per well; an excitation center wavelength of 530 nm, with a bandwidth of 5 nm; an emission center wavelength of 585 nm, with a bandwidth of […]. The calculation of the IC50 half-maximal inhibition concentration values was performed in GraphPad Prism 6.0 (GraphPad Software Inc.), based on the equations of the experimental curves.

Data set [3] is described as follows: Single-dose acute toxicity, intragastric administration. The data set is classed as in vivo, rat. The following applies: both sexes, Wistar, rat, in vivo, po; rats, intragastric, single dose; read-out: maximum tolerated dose. Here is the method:
Before administration, the BX-SI043 substance was resuspended in a 1% starch solution. The animals in the treatment groups received suspensions intragastrically in doses of 2000 mg/kg (administered in two equal doses, with a 30–40 min interval), 1000 mg/kg, 600 mg/kg, and 300 mg/kg (administered in single doses).
The animals were monitored daily for any abnormalities. On the 2nd, 7th, and 13th days after administration, the animals were clinically evaluated and weighed, and the consumption of feed and water were measured. On the 14th day, the behavior of the animals was evaluated. On the 15th day, the animals were euthanized, and the lungs (with trachea), heart, thymus, liver, kidneys, spleen, stomach, small intestine, colon, brain, adrenal glands, and testes/ovaries were fixed in 10% neutral formalin for histological evaluation.

SMILES strings stand for the structures. Where only a bound is given, the exact number is not on record here.

Take `CCOC(=O)c1[nH]c2cc(F)ccc2c1/N=N/N1CCCC1` [BX-SI043, Ethyl (E)-6-fluoro-3-(pyrrolidin-1-yldiazenyl)-1H-indole-2-carboxylate]: in data set [1] (artificial intestinal juice with pancreatin, pH 6.8, pancreatin, 37 °C, 1 μM, read-out: t1/2 in artificial intestinal juice (converted)), the half-life at 1 µM was 1 h. Besides, in data set [1] (pH 6.8, 37 °C, 4 h), the “metabolism in intestinal juice after 4 h of incubation” value is given as “fully metabolized”. Besides, the “metabolized in human plasma after 1 h” value in data set [2] (1 h) is listed as “about 50%”. Moreover, the “metabolized in human plasma after 4 h” value in data set [2] (4 h) came out at 97%. Besides, at hERG K+-ion channel, the IC50 is more than 50 µM. The MTD at 14 days in data set [3] is 600 mg/kg.

Values taken from paper PMC11899342, “Novel Triazeneindole Antibiotics: Synthesis and Hit-to-Lead Optimization” (International Journal of Molecular Sciences, 2025).
